Assay [1] deals with [^35S]25-nt hnRNP-E1 mRNA cis-element. Put plainly: Dissociation constant (KD) of GST-hnRNP-E1 or its mutant proteins for the 25-nt hnRNP-E1 mRNA cis-element. The assay is classed as binding, human. The settings on record: L-Homocysteine 0 μM. The procedure:
(§1) Methods for testing the ability of an engineered hnRNP-E1 variant polypeptide to bind to an RNA comprising the sequence of SEQ ID NO:6 are known in the art. Such methods include, but are not limited to, RNA electrophoretic mobility shift assays, as exemplified herein, RNA pull-down assays, and oligonucleotide-targeted RNase H protection assays. Such assays are conducted in the presence or absence of homocysteine to determine the RNA-binding dependence of any particular hnRNP-E1 polypeptide tested on the presence of homocysteine. […] Additional methods are outline in Tang et al. (“Incrimination of heterogeneous nuclear ribonucleoprotein E1 (hnRNP-E1) as a candidate sensor of physiological folate deficiency.” J Biol Chem. 2011; 286(45):39100-39115), which is incorporated herein in its entirety.
(§2) Specific binding was determined by subtracting values of non-specific binding with GST from those of total binding with GST-hnRNP-E1; (however, in Table 1 and FIG. 6G, non-specific binding using bovine serum albumin (BSA) was subtracted from total binding to GST-hnRNP-E1 to determine specific binding). The KD was calculated from a Scatchard plot using GraphPad Prism 6 from GraphPad Software (San Diego, Calif.), as previously described in the art.

Assay [2] has as its target [^35S]18-nt folate receptor-α mRNA cis-element. Put plainly: Dissociation constant (KD) of GST-hnRNP-E1 or its mutant proteins for the 18-nt folate receptor-α mRNA cis-element. The assay is classed as binding, human. The settings on record: L-Homocysteine 0 μM; listed as (HA)-hnRNP-E1(C293 S)-mutant. The procedure:
as §1, §2

Assay [3] concerns 25-nt hnRNP-E1 mRNA cis-element. Put plainly: Gel-shift assay of hnRNP-E1 proteins with 25-nt hnRNP-E1 mRNA cis-element. The assay is classed as binding, human. The settings on record: absence of L-homocysteine. The procedure: (§3) Parenthetically, there was no significant difference in RNA binding to GST-hnRNP-E1 by use of either 32P-RNA probes or 35S-labeled RNA probes used. Other studies assessed the effect of iron(II) or iron(III) on homocysteine-induced RNA-protein interactions.
(§4) Recombinant GST-plasmid DNA, pGST-hnRNP-E1, pGST-hnRNP-E2, and related engineered variant plasmids were transformed into BL21 Escherichia coli from Novagen (Madison, Wis.). After induction by 1 mM isopropyl-1-thio-ß-D-galactopyranoside, the GST-hnRNP-E1 and engineered variant fusion proteins were individually purified using the B-PER GST Fusion Protein Purification Kit (Pierce, Rockford, Ill.). The eluted GST fusion proteins were dialyzed against 500 volumes of buffer to remove excess reducing reagents (such as dithiothreitol (DTT)) and assayed by SDS-PAGE and Western blots using anti-peptide hnRNP-E1 antiserum. Gel shift assays with target RNA were carried out as described.

For assay [4], the system named is 18-nt folate receptor-α mRNA cis-element. Put plainly: Gel-shift assay of hnRNP-E1 proteins with 18-nt folate receptor-α mRNA cis-element. The assay is classed as binding, human. The settings on record: absence of homocysteine or other reducing agent. As to the method: as §3, §4
Assay [5] concerns HPV16 L2 mRNA cis-element. As to the kind of experiment: Gel-shift assay of hnRNP-E1 proteins with HPV16 L2 mRNA. The assay is classed as binding, Human Papillomavirus type 16. The note with it: absence of reducing agents; versus wild-type and G292A. As to the method: as §3
(§5) Construction of plasmids for generation of HPV16 L2 RNA, gel-shift and in vitro translation studies were carried as described with additional treatments shown in FIGS. 10A-10D

The test system of another assay is hnRNP-E1 mRNA. Put plainly: In vitro translation of hnRNP-E1. The assay is classed as biochemical, human. The settings on record: protein added after neutralizing ß-ME by N-ethylmaleimide. The procedure:
(§6) In vitro transcription-translation was carried out using the Linked SP6/T7 In Vitro Transcription/Translation Kit (Roche Applied Science) after addition of one of various targeted DNAs—pSPT18-25-hnRNP-E1 DNA, or Pst1-linearized plasmid pSPT18-folate receptor-α, or HPV16 L2 DNA, (0.5 μg/reaction)—to the transcription mix as described. In other experiments, the capacity for perturbing the interaction of hnRNP-E1 with the 25-nt hnRNP-E1 cis-element during in vitro translation was assessed in the presence of either scrambled oligonucleotides (5′-[…]-3′ SEQ ID NO:20) or specific antisense oligonucleotides (5′-[…]-3′ SEQ ID NO:21) generated against the 25-nt hnRNP-E1 mRNA cis-element (GenScript USA, Piscataway, N.J.).

A further assay has as its system folate receptor-α mRNA. As to the kind of experiment: In vitro translation of folate receptor-α. The assay is classed as biochemical, human. The note with it: presence of 2-mM NEM. As to the method:
In vitro transcription-translation was carried out using the Linked SP6/T7 In Vitro Transcription/Translation Kit (Roche Applied Science) after addition of one of various targeted DNAs—pSPT18-25-hnRNP-E1 DNA, or Pst1-linearized plasmid pSPT18-folate receptor-α, or HPV16 L2 DNA, (0.5 μg/reaction)—to the transcription mix as described. In other experiments, the capacity for perturbing the interaction of hnRNP-E1 with the 25-nt hnRNP-E1 cis-element during in vitro translation was assessed in the presence of either scrambled oligonucleotides (5′-GCGTCGCTCGCTTCGCACGTGCGCC-3′ SEQ ID NO:20) or specific antisense oligonucleotides (5′-GGG AGC GAG CGG GCG GGA G-3′ SEQ ID NO:21) generated against the 25-nt hnRNP-E1 mRNA cis-element (GenScript USA, Piscataway, N.J.).

The test system of a further assay is HPV16 L2 RNA. As to the kind of experiment: In vitro translation of HPV16 L2 protein. The assay is classed as biochemical, Human Papillomavirus type 16. The note with it: after quenching excess ß-ME by NEM (2 mM). The procedure: as §6, §5
For assay [6], the system named is 18-nt folate receptor-α mRNA cis-element-linked CAT reporter. Put plainly: CAT reporter driven by 18-nt folate receptor-α mRNA cis-element, co-transfected with hnRNP-E1 plasmids in HeLa-IU1-HF cells. The assay is classed as cell-based, human. The note with it: pSV-β-gal normalization. As to the method: A plasmid containing CAT reporter DNA driven by an 18-nucleotide folate receptor-α mRNA cis-element, was constructed as previously described. Briefly, HeLa-IU1-HF cells were grown to 70-80% confluence and then co-transfected with CAT reporter DNA driven by an 18-nucleotide folate receptor-α mRNA cis-element and various construct combinations of either wild-type and mutant hnRNP-E1 plasmids using X-tremeGENE DNA transfection reagent (Roche Applied Science). The transfection reactions were set up with 6-μg DNA and 12-μL XtremeGENE DNA transfection reagent for each well. In these transfection experiments, pSV-ß-gal was used as an internal control to monitor the efficiency of transfection of cells. After 48 h cells were harvested for protein determination using the BCA protein assay (Pierce); ß-galactosidase activity by the ß-galactosidase chemiluminescent assay (Roche Diagnostics); and CAT activity using a CAT ELISA kit (Roche Diagnostics). All experiments were carried out 4 times with 3 replications per treatment. The data from non-transfected cells was used as a background and subtracted from that obtained with transfected cells. All data were normalized using the internal standard and protein concentration for each treatment.

The subject of assay [7] is newly synthesized [^35S]hnRNP-E1 in placental 1584-HF cells. Put plainly: Biosynthetic rate of hnRNP-E1 after protein transfection into placental 1584-HF cells. The assay is classed as cell-based, human. The note with it: protein transfected in placental 1584-HF cells. An excerpt: (§7) Transfection of purified recombinant wild-type or various mutant hnRNP-E1 proteins into cells was achieved using the Xfect™ Protein Transfection Kit (Clontech, Mountain View, Calif.). Briefly, placental 1584-HF cells in 10-cm dishes at 70-80% confluence were transfected with 2.4-mL serum-free medium and Xfect Protein Transfection Reagent (1.2-mL) containing 20-μg of either wild-type hnRNP-E1-, or highest-affinity (HA)-hnRNP-E1(C293S)-mutant, or wild-type-like hnRNP-E1 (G292A)-mutant proteins and 2-μg of ß-galactosidase at 37° C. for 60-min. After cysteine-starvation for 4-h, an aliquot of cells were assessed for ß-galactosidase activity (to measure the efficiency of co-transfection of ß-galactosidase) and the remaining cells were pulsed with L-[^35S]cysteine (250-μCi) and assessed for specific [^35S]cysteine incorporated into folate receptor to determine the biosynthetic rate of this protein. A similar protocol was employed for analysis of newly synthesized [^35S]hnRNP-E1 using anti-hnRNP-E1 antiserum-coupled agarose and control agarose in order to derive values for specific [^35S]cysteine incorporated into hnRNP-E1 and thereby determine the biosynthetic rate of this protein.

Assay [8] deals with newly synthesized [^35S]folate receptors in placental 1584-HF cells. Put plainly: Biosynthetic rate of folate receptors after protein transfection into placental 1584-HF cells. The assay is classed as cell-based, human. The settings on record: protein transfected in placental 1584-HF cells.
Description: as §7

Where [9] appears, read: listed as (HA)-hnRNP-E1(C293S)-mutant.

Several values for one entry are separate records, joined by “and”; a condition that tells them apart may be missing. Identical values can stand only once.

For orientation: Kd means the equilibrium constant for the complex coming apart. Read a high Kd as weaker binding.

“GST-hnRNP-E1(C293S): highest-affinity mutant, cysteine-293 to serine in the KH3 domain of hnRNP-E1 (SEQ ID NO:2)”: the Kd in assay [1] was 0.39 nM; in assay [2], 0.27 nM and 0.2 nM. Moreover, the RNA-protein gel-shift signal result in assay [3] is “strong signal”. The RNA-protein signal entry in assay [4] is on record as “strongest RNA-protein signal”. Also, in [5], the “interaction with HPV16 L2 mRNA on gel-shift assays” value is “greater interaction”. Moreover, in the assay with hnRNP-E1 mRNA, the “translation of hnRNP-E1 in vitro” value is “markedly stimulated translation of hnRNP-E1 in vitro”. In addition, the “translation of folate receptor-α” value in the assay with folate receptor-α mRNA is “maximally increased”. The “HPV16 L2 protein signal” value with HPV16 L2 RNA is reported as “progressive reduction in signal”. Moreover, the “folate receptor-α cis-element-linked CAT activity versus wild-type hnRNP-E1 or G292A control” value in assay [6] is “two and one-half times stronger”. Besides, the “[^35S]cysteine-hnRNP-E1” value was found to be 6.70 ± 1.74 c fmol/mg protein/h in [7] and 6.70 fmol/mg protein/h in assay [7] (setting [9]). Moreover, the “increase in the rate of biosynthesis of [^35S]hnRNP-E1” value in assay [7] is “over 6 fold”. Besides, the results for the “[^35S]cysteine-folate receptor” value in [8] and in assay [8] (setting [9]) were 6.62 ± 0.74 c fmol/mg protein/h and 6.62 fmol/mg protein/h, respectively. Further, the “increase of [^35S]folate receptors over controls” value in assay [8] (over wild-type and G292A controls) is given as approximately 4 fold.
